Measured values from patent US10968203B2, “Pyrimidinyl-pyridyloxy-naphthyl compounds and methods of treating IRE1-related diseases and disorders” (Genentech, Inc., priority 2017, dated 2021).
“And” between values parts separate entries of the source, which are not always exact repeats. Identical values can stand only once. Counter-ions that a name gives are not always drawn.

test system: XBP1s-luc 293 LUC; assay: cellular PD assay, XBP1s-LUC reporter (Example 903); format: cell-based; conditions: Table 1; read-out: XBP1s-luc 293 LUC (IC50)
In short: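 Cellular IRE1α pathway activity was quantified from the luciferase signal of an XBP1-Luc reporter, where the luciferase fusion is in frame and expressed only from the spliced XBP1 transcript.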

Structure (SMILES) | IC50
CCC(C)S(=O)(=O)Nc1cccc2c(Oc3ncccc3-c3ccnc(N[C@H]4CCCNC4)n3)c(C)ccc12 (mixture of isomers) [Example 134, N-(6-Methyl-5-((3-(2-((S)-piperidin-3-ylamino)pyrimidin-4-yl)pyridin-2-yl)oxy)naphthalen-1-yl) butane-2-sulfonamide] | 260 nM
CCCS(=O)(=O)Nc1cccc2c(Oc3ncccc3-c3ccnc(N[C@@H]4CNC[C@H](C)C4)n3)c(C)ccc12 [Example 361, N-(6-Methyl-5-((3-(2-(((3S,5R)-5-methylpiperidin-3-yl)amino)pyrimidin-4-yl)pyridin-2-yl)oxy)naphthalen-1-yl)propane-1-sulfonamide] | 85.1 nM
Cc1ccc2c(NS(=O)(=O)Cc3cscn3)cccc2c1Oc1ncccc1-c1ccnc(N[C@H]2CCCNC2)n1 [Example 156, (S)—N-(6-Methyl-5-((3-(2-(piperidin-3-ylamino)pyrimidin-4-yl)pyridin-2-yl)oxy)naphthalen-1-yl)-1-(thiazol-4-yl)methanesulfonamide] | 157 nM
Cc1ccc2c(NC(=O)[C@H]3C[C@H]3F)cccc2c1Oc1ncccc1-c1ccnc(N[C@H]2CCCNC2)n1 [Example 222, (1R,2R)-2-Fluoro-N-[6-methyl-5-[[3-[2-[[(3S)-3-piperidyl]amino]pyrimidin-4-yl]-2-pyridyl]oxy]-1-naphthyl]cyclopropanecarboxamide] | 93 nM
Cc1ccc2c(NCCC(C)O)cccc2c1Oc1ncccc1-c1ccnc(N[C@H]2CCCNC2)n1 (mixture of isomers) [Example 390, 4-((6-Methyl-5-((3-(2-((S)-piperidin-3-ylamino)pyrimidin-4-yl)pyridin-2-yl)oxy)naphthalen-1-yl)amino)butan-2-ol] | 143 nM
Cc1ccc2c(NC(=O)CC(C)(C)C)c(F)ccc2c1Oc1ncccc1-c1ccnc(N[C@@H]2CNC[C@@H](F)C2)n1 (single isomer, unassigned) [Example 322] | 40.7 nM
Cc1ccc2c(NC[C@H]3CCOC3)cccc2c1Oc1ncccc1-c1ccnc(N[C@H]2CCCNC2)n1 (single isomer, unassigned) [Example 352] | 499 nM
Cc1ccc2c(NS(=O)(=O)Cc3ccccc3C#N)cccc2c1Oc1ncccc1-c1ccnc(N[C@H]2CCCNC2)n1 [Example 146, (S)-1-(2-Cyanophenyl)-N-(6-methyl-5-((3-(2-(piperidin-3-ylamino)pyrimidin-4-yl)pyridin-2-yl)oxy)naphthalen-1-yl)methanesulfonamide] | 18 nM
Cc1ccc2c(NC(=O)[C@@H]3C[C@@H]3C)cccc2c1Oc1ncccc1-c1ccnc(N[C@H]2CCCNC2)n1 (single isomer, unassigned) [Example 231] | 53 nM and 33.3 nM
Cc1ccc2c(NC(=O)[C@@H]3CC3(F)F)cccc2c1Oc1ncccc1-c1ccnc(N[C@H]2CCCNC2)n1 (single isomer, unassigned) [Example 180] | 213 nM
Cc1ccc2c(NCc3csc(C(C)C)n3)cccc2c1Oc1ncccc1-c1ccnc(N[C@H]2CCCNC2)n1 [Example 256, (S)-4-(2-((5-(((2-Isopropylthiazol-4-yl)methyl)amino)-2-methylnaphthalen-1-yl)oxy)pyridin-3-yl)-N-(piperidin-3-yl)pyrimidin-2-amine] | 210 nM
Cc1ccc2c(NS(=O)(=O)c3cccnc3)cccc2c1Oc1ncccc1-c1ccnc(N[C@H]2CCCNC2)n1 [Example 149, (S)—N-(6-Methyl-5-((3-(2-(piperidin-3-ylamino)pyrimidin-4-yl)pyridin-2-yl)oxy)naphthalen-1-yl)pyridine-3-sulfonamide] | 494 nM
Cc1ccc2c(NS(=O)(=O)Cc3ccc(C(F)F)cc3)cccc2c1Oc1ncccc1-c1ccnc(N[C@H]2CCCNC2)n1 [Example 160, (S)-1-(4-(Difluoromethyl)phenyl)-N-(6-methyl-5-((3-(2-(piperidin-3-ylamino)pyrimidin-4-yl)pyridin-2-yl)oxy)naphthalen-1-yl)methanesulfonamide] | 13 nM
Cc1ccc2c(NC(=O)[C@@H]3CC34CC4)c(F)ccc2c1Oc1ncccc1-c1ccnc(N[C@H]2CCCNC2)n1 (single isomer, unassigned) [Example 380] | 56.6 nM
CCCS(=O)(=O)Nc1c(F)ccc2c(Oc3ncccc3-c3ccnc(N[C@@H]4CNCC[C@H]4C)n3)c(C)ccc12 (single isomer, unassigned) [Example 327] | 254 nM
Cc1nc(CNc2cccc3c(Oc4ncccc4-c4ccnc(N[C@H]5CCCNC5)n4)c(C)ccc23)cs1 [Example 244, (S)-4-(2-((2-Methyl-5-(((2-methylthiazol-4-yl)methyl)amino)naphthalen-1-yl)oxy)pyridin-3-yl)-N-(piperidin-3-yl)pyrimidin-2-amine] | 12 nM
Cc1ccc2c(NCCC#N)cccc2c1Oc1ncccc1-c1ccnc(N[C@H]2CCCNC2)n1 [Example 329, (S)-3-((6-Methyl-5-((3-(2-(piperidin-3-ylamino)pyrimidin-4-yl)pyridin-2-yl)oxy)naphthalen-1-yl)amino)propanenitrile] | 123 nM
Cc1ccc2c(NS(=O)(=O)Cc3ccc(F)cc3F)cccc2c1Oc1ncccc1-c1ccnc(N[C@H]2CCCNC2)n1 [Example 157, (S)-1-(2,4-Difluorophenyl)-N-(6-methyl-5-((3-(2-(piperidin-3-ylamino)pyrimidin-4-yl)pyridin-2-yl)oxy)naphthalen-1-yl)methanesulfonamide] | 8 nM
Cc1ccc2c(NS(=O)(=O)Cc3ccccc3CF)cccc2c1Oc1ncccc1-c1ccnc(N[C@H]2CCCNC2)n1 [Example 170, (S)-1-(2-(Fluoromethyl)phenyl)-N-(6-methyl-5-((3-(2-(piperidin-3-ylamino)pyrimidin-4-yl)pyridin-2-yl)oxy)naphthalen-1-yl)methanesulfonamide] | 15 nM
Cc1ccc2c(NS(=O)(=O)CC(F)(F)F)c(F)ccc2c1Oc1ncccc1-c1ccnc(N[C@H]2CCCNC2)n1 [Example 362, (S)-2,2,2-Trifluoro-N-(2-fluoro-6-methyl-5-((3-(2-(piperidin-3-ylamino)pyrimidin-4-yl)pyridin-2-yl)oxy)naphthalen-1-yl)ethanesulfonamide] | 23.4 nM
Cc1ccc2c(NS(=O)(=O)Cc3cccc(Cl)c3)cccc2c1Oc1ncccc1-c1ccnc(N[C@H]2CCCNC2)n1 [Example 144, (S)-1-(3-Chlorophenyl)-N-(6-methyl-5-((3-(2-(piperidin-3-ylamino)pyrimidin-4-yl)pyridin-2-yl)oxy)naphthalen-1-yl)methanesulfonamide] | 25 nM
Cc1ccc2c(N3CCN(C)S3(=O)=O)cccc2c1Oc1ncccc1-c1ccnc(N[C@H]2CCCNC2)n1 [Example 247, (S)-2-Methyl-5-(6-methyl-5-((3-(2-(piperidin-3-ylamino)pyrimidin-4-yl)pyridin-2-yl)oxy)naphthalen-1-yl)-1,2,5-thiadiazolidine 1,1-dioxide] | 360 nM
Cc1ccc2c(NCCc3cscn3)cccc2c1Oc1ncccc1-c1ccnc(N[C@H]2CCCNC2)n1 [Example 260, (S)-4-(2-((2-Methyl-5-((2-(thiazol-4-yl)ethyl)amino)naphthalen-1-yl)oxy)pyridin-3-yl)-N-(piperidin-3-yl)pyrimidin-2-amine] | 103 nM

same assay, conditions: Table 2; read-out: XBP1s-luc 293 LUC (IC50)

Structure (SMILES) | IC50 [nM]
CO[C@@H](CNc1cccc2c(Oc3ncccc3-c3ccnc(N[C@@H]4CNC[C@@H](F)C4)n3)c(C)ccc12)C(F)(F)F (single isomer, unassigned) [Example 493, hydrochloride] | 21
Cc1ccc2c(NS(=O)(=O)C[C@H]3CCCO3)c(F)ccc2c1Oc1ncccc1-c1ccnc(N[C@H]2CCCNC2)n1 (single isomer, unassigned) [Example 417, hydrochloride] | 74
Cc1ccc2c(NS(=O)(=O)CC(C)C(F)(F)F)c(F)ccc2c1Oc1ncccc1-c1ccnc(N[C@H]2CCCNC2)n1 (single isomer, unassigned) [Example 454, hydrochloride] | 24
COCCS(=O)(=O)Nc1c(F)ccc2c(Oc3ncccc3-c3ccnc(N[C@@H]4CNC[C@H](C)C4)n3)c(C)ccc12 [Example 431, N-[2-Fluoro-6-methyl-5-[[3-[2-[[(3S,5R)-5-methyl-3-piperidyl]amino]pyrimidin-4-yl]-2-pyridyl]oxy]-1-naphthyl]-2-methoxy-ethanesulfonamide hydrochloride] | 34
Cc1ccc2c(NS(=O)(=O)c3cccc4c3ccn4C)c(F)ccc2c1Oc1ncccc1-c1ccnc(N[C@H]2CCCNC2)n1 [Example 458, N-[2-Fluoro-6-methyl-5-[[3-[2-[[(3S)-3-piperidyl]amino]pyrimidin-4-yl]-2-pyridyl]oxy]-1-naphthyl]-1-methyl-indole-4-sulfonamide] | 19
Cc1ccc2c(NS(=O)(=O)Cc3noc4ccccc34)c(F)ccc2c1Oc1ncccc1-c1ccnc(N[C@H]2CCCNC2)n1 [Example 443, (S)-1-(Benzo[d]isoxazol-3-yl)-N-(2-fluoro-6-methyl-5-((3-(2-(piperidin-3-ylamino)pyrimidin-4-yl)pyridin-2-yl)oxy)naphthalen-1-yl)methanesulfonamide hydrochloride] | 8
Cc1ccc2c(N[C@H]3CCCC[C@@H]3O)cccc2c1Oc1ncccc1-c1ccnc(N[C@H]2CCCNC2)n1 (single isomer, unassigned) [Example 447, hydrochloride] | 146
Cc1ccc2c(NS(=O)(=O)CCC(F)(F)F)c(F)ccc2c1Oc1ncccc1-c1ccnc(N[C@@H]2CNC[C@@H](F)C2)n1 (single isomer, unassigned) [Example 432, hydrochloride] | 28
Cc1ccc2c(NS(=O)(=O)CCC(F)F)c(F)ccc2c1Oc1ncccc1-c1ccnc(N[C@H]2CCCNC2)n1 [Example 398, (S)-3,3-Difluoro-N-(2-fluoro-6-methyl-5-((3-(2-(piperidin-3-ylamino)pyrimidin-4-yl)pyridin-2-yl)oxy)naphthalen-1-yl)propane-1-sulfonamide hydrochloride] | 22

same assay, conditions: read-out: XBP1s-luc 293 LUC (IC50)

Structure (SMILES) | IC50 [nM]
Cc1ccc2c(Oc3ncccc3-c3ccnc(N[C@H]4CCCNC4)n3)c(C)ccc2c1NC[C@H](O)C(F)(F)F [Example 319, (S)-3-((2,6-Dimethyl-5-((3-(2-((S)-piperidin-3-ylamino)pyrimidin-4-yl)pyridin-2-yl)oxy)naphthalen-1-yl)amino)-1,1,1-trifluoropropan-2-ol] | 48.2
